In ChEMBL document CHEMBL3774345, “Synthesis of new diarylamides with pyrimidinyl pyridine scaffold and evaluation of their anti-proliferative effect on cancer cell lines” (Bioorg Med Chem Lett, 2016):
pIC50: −log10 of the molar value.

Assays:
[1] = Cytotoxicity against human PC3 cells assessed as cell growth at 10^-8 M after 24 hrs by SRB assay; assay type: functional; conditions: PC-3, 24 h, read-out: Activity
[2] = Cytotoxicity against human HOP62 cells assessed as cell growth at 10^-7 M after 24 hrs by SRB assay; assay type: functional; conditions: HOP-62, 24 h, read-out: Activity
KM12 [3] = experiment: Cytotoxicity against human KM12 cells assessed as cell growth at 10^-7 M after 24 hrs by SRB assay; assay type: functional; conditions: KM12, 24 h, read-out: Activity
A549 [4] = experiment: Cytotoxicity against human A549 cells assessed as cell growth at 10^-4 M after 24 hrs by SRB assay; assay type: functional; conditions: A549, 24 h, read-out: Activity
[5] = Cytotoxicity against human SF268 cells assessed as cell growth at 10^-7 M after 24 hrs by SRB assay; assay type: functional; conditions: SF-268, 24 h, read-out: Activity
M14 = experiment: Cytotoxicity against human M14 cells assessed as cell growth at 10^-7 M after 24 hrs by SRB assay; assay type: functional; conditions: M14, 24 h, read-out: Activity
[6] = Cytotoxicity against human IGROV1 cells assessed as cell growth at 10^-7 M after 24 hrs by SRB assay; assay type: functional; conditions: IGROV-1, 24 h, read-out: Activity
ACHN = experiment: Cytotoxicity against human ACHN cells assessed as cell growth at 10^-7 M after 24 hrs by SRB assay; assay type: functional; conditions: read-out: Activity
NCI-H460 [7] = experiment: Cytotoxicity against human NCI-H460 cells after 24 hrs by SRB assay; assay type: functional; conditions: NCI-H460, 24 h
NCI-H522 = experiment: Cytotoxicity against human NCI-H522 cells after 24 hrs by SRB assay; assay type: functional, cell-based; conditions: NCI-H522, 24 h
[8] = Cytotoxicity against human SNB19 cells after 24 hrs by SRB assay; assay type: functional; conditions: SNB-19, 24 h
Malme-3M = experiment: Cytotoxicity against human MALME-3M cells after 24 hrs by SRB assay; assay type: functional, cell-based
HT-29 [9] = experiment: Cytotoxicity against human HT-29 cells assessed as cell growth at 10^-4 M after 24 hrs by SRB assay; assay type: functional; conditions: HT-29, 24 h, read-out: Activity
KM12 [10] = experiment: Cytotoxicity against human KM12 cells assessed as cell growth at 10^-4 M after 24 hrs by SRB assay; assay type: functional; conditions: KM12, 24 h, read-out: Activity
U-251 = experiment: Cytotoxicity against human U251 cells assessed as cell growth at 10^-4 M after 24 hrs by SRB assay; assay type: functional; conditions: U-251, 24 h, read-out: Activity
[11] = Cytotoxicity against human PC3 cells assessed as cell growth at 10^-7 M after 24 hrs by SRB assay; assay type: functional; conditions: PC-3, 24 h, read-out: Activity
[12] = Cytotoxicity against human Hs 578T cells assessed as cell growth at 10^-7 M after 24 hrs by SRB assay; assay type: functional; conditions: read-out: Activity
[13] = Cytotoxicity against human OVCAR3 cells assessed as cell growth at 10^-4 M after 24 hrs by SRB assay; assay type: functional; conditions: OVCAR-3, 24 h, read-out: Activity
A498 = experiment: Cytotoxicity against human A498 cells assessed as cell growth at 10^-4 M after 24 hrs by SRB assay; assay type: functional; conditions: A498, 24 h, read-out: Activity
[14] = Cytotoxicity against human OVCAR8 cells assessed as cell growth at 10^-6 M after 24 hrs by SRB assay; assay type: functional; conditions: OVCAR-8, 24 h, read-out: Activity
[15] = Cytotoxicity against human TK10 cells assessed as cell growth at 10^-6 M after 24 hrs by SRB assay; assay type: functional; conditions: TK-10, 24 h, read-out: Activity
[16] = Cytotoxicity against human Caki1 cells after 24 hrs by SRB assay; assay type: functional; conditions: CAKI-1, 24 h
SR = experiment: Cytotoxicity against human SR cells after 24 hrs by SRB assay; assay type: functional
NCI-H460 [17] = experiment: Cytotoxicity against human NCI-H460 cells assessed as cell growth at 10^-8 M after 24 hrs by SRB assay; assay type: functional; conditions: NCI-H460, 24 h, read-out: Activity
HT-29 [18] = experiment: Cytotoxicity against human HT-29 cells assessed as cell growth at 10^-8 M after 24 hrs by SRB assay; assay type: functional; conditions: HT-29, 24 h, read-out: Activity
[19] = Cytotoxicity against human SF268 cells assessed as cell growth at 10^-8 M after 24 hrs by SRB assay; assay type: functional; conditions: SF-268, 24 h, read-out: Activity
[20] = Cytotoxicity against human SF295 cells assessed as cell growth at 10^-8 M after 24 hrs by SRB assay; assay type: functional; conditions: SF-295, 24 h, read-out: Activity
[21] = Cytotoxicity against human HL-60(TB) cells assessed as cell growth at 10^-5 M after 24 hrs by SRB assay; assay type: functional; conditions: HL-60, 24 h, read-out: Activity
[22] = Cytotoxicity against human MOLT4 cells assessed as cell growth at 10^-5 M after 24 hrs by SRB assay; assay type: functional; conditions: MOLT-4, 24 h, read-out: Activity
A549 [23] = experiment: Cytotoxicity against human A549 cells assessed as cell growth at 10^-5 M after 24 hrs by SRB assay; assay type: functional; conditions: A549, 24 h, read-out: Activity
NCI-H226 = experiment: Cytotoxicity against human NCI-H226 cells assessed as cell growth at 10^-5 M after 24 hrs by SRB assay; assay type: functional; conditions: NCI-H226, 24 h, read-out: Activity
[24] = Cytotoxicity against human SNB75 cells assessed as cell growth at 10^-5 M after 24 hrs by SRB assay; assay type: functional; conditions: SNB-75, 24 h, read-out: Activity
[25] = Cytotoxicity against human UACC257 cells assessed as cell growth at 10^-5 M after 24 hrs by SRB assay; assay type: functional; conditions: UACC-257, 24 h, read-out: Activity
[26] = Cytotoxicity against human Caki1 cells assessed as cell growth at 10^-5 M after 24 hrs by SRB assay; assay type: functional; conditions: CAKI-1, 24 h, read-out: Activity
SK-MEL-2 = experiment: Cytotoxicity against human SK-MEL-2 cells assessed as growth inhibition at 10 uM after 24 hrs by SRB assay; assay type: functional; conditions: SK-MEL-2, 24 h, read-out: GI
[27] = read-out: LC50 (the source's name)
[28] = read-out: pLC50 (the source's name) (converted)

Work on O=C(Nc1cc(-c2cccnc2)nc(NCCCN2CCOCC2)n1)c1cc(Br)cc(C(F)(F)F)c1 yielded a growth at 0.01 µM [1] of 93%, a growth at 0.1 µM [2] of 85% and a growth at 0.1 µM (KM12 [3]) of 99%. It also gave a growth at 100 µM (A549 [4]) of -95%, a growth at 0.1 µM [5] of 94% and a growth at 0.1 µM (M14) of 95%. It also gave a growth at 0.1 µM [6] of 108%, a growth at 0.1 µM (ACHN) of 100% and a GI50 (NCI-H460 [7]; read-out: GI50) of 2970 nM. The CC50 (NCI-H460 [7]; [27]) was 44.1 µM, the TGI (NCI-H460 [7]; read-out: TGI) was 8.94 µM and the GI50 (NCI-H460 [7]; read-out: pGI50 (converted)) was 2950 nM. For the same molecule, the CC50 (NCI-H460 [7]; [28]) was 43.7 µM, the TGI (NCI-H460 [7]; read-out: pTGI (converted)) was 8.91 µM and the pIC50 (NCI-H522) was 5.71. The GI50 (NCI-H522; read-out: GI50) was 1950 nM, the CC50 (NCI-H522; [27]) was 23.3 µM and the TGI (NCI-H522; read-out: TGI) was 5.31 µM. It also gave a GI50 (NCI-H522; read-out: pGI50 (converted)) of 1950 nM, a CC50 (NCI-H522; [28]) of 23.4 µM and a TGI (NCI-H522; read-out: pTGI (converted)) of 5.37 µM. The GI50 ([8]; read-out: GI50) was 2500 nM, the CC50 [8, 27] was 21.5 µM and the TGI ([8]; read-out: TGI) was 5.75 µM. It also gave a GI50 ([8]; read-out: pGI50 (converted)) of 2510 nM, a CC50 [8, 28] of 21.4 µM and a TGI ([8]; read-out: pTGI (converted)) of 5.75 µM. For the same molecule, the pIC50 (Malme-3M) was 5.75, the GI50 (Malme-3M; read-out: GI50) was 1760 nM and the CC50 (Malme-3M; [27]) was 7.28 µM. The TGI (Malme-3M; read-out: TGI) was 3.58 µM, the GI50 (Malme-3M; read-out: pGI50 (converted)) was 1780 nM and the CC50 (Malme-3M; [28]) was 7.24 µM. It also gave a TGI (Malme-3M; read-out: pTGI (converted)) of 3.55 µM, a growth at 100 µM (HT-29 [9]) of -83% and a growth at 100 µM (KM12 [10]) of -90%. For the same molecule, the growth at 100 µM (U-251) was -93%, the growth at 0.1 µM [11] was 95% and the growth at 0.1 µM [12] was 94%. The growth at 100 µM [13] was -100%, the growth at 100 µM (A498) was -91% and the growth at 1 µM [14] was 102%. It also gave a growth at 1 µM [15] of 88%, a GI50 ([16]; read-out: GI50) of 2530 nM and a CC50 [16, 27] of 32.8 µM. For the same molecule, the TGI ([16]; read-out: TGI) was 10.7 µM, the GI50 ([16]; read-out: pGI50 (converted)) was 2510 nM and the CC50 [16, 28] was 33.1 µM. It also gave a TGI ([16]; read-out: pTGI (converted)) of 10.7 µM, a GI50 (SR; read-out: GI50) of 2600 nM and a CC50 (SR; [27]) of over 100 µM. For the same molecule, the TGI (SR; read-out: TGI) was 41.7 µM, the GI50 (SR; read-out: pGI50 (converted)) was 2630 nM and the CC50 (SR; [28]) was over 100 µM. The TGI (SR; read-out: pTGI (converted)) was 41.7 µM, the growth at 0.01 µM (NCI-H460 [17]) was 99% and the growth at 0.01 µM (HT-29 [18]) was 100%. For the same molecule, the growth at 0.01 µM [19] was 97%, the growth at 0.01 µM [20] was 97% and the growth at 10 µM [21] was -27%. The growth at 10 µM [22] was 9%, the growth at 10 µM (A549 [23]) was 51% and the growth at 10 µM (NCI-H226) was 49%. For the same molecule, the growth at 10 µM [24] was -60%, the growth at 10 µM [25] was -83% and the growth at 10 µM [26] was 3%.
With COCCCNc1nc(NC(=O)c2cc(OC)cc(OC)c2)cc(-c2cccnc2)n1 the inhibition of growth at 10 µM (SK-MEL-2) was 21.2%.
